Reference: ChEMBL document CHEMBL5032508, “Synthesis of Fluorescent Probes Targeting Tumor-Suppressor Protein FHIT and Identification of Apoptosis-Inducing FHIT Inhibitors” (J Med Chem, 2021)

Assays:
[1] = Dissociation constant, pKa of compound; assay type: physicochemical
[2] = Growth inhibition of human HCC827-luc cells incubated for 72 hrs by CCK-8 assay; assay type: functional
[3] = target: T1, Bis(5'-adenosyl)-triphosphatase (Homo sapiens, UniProt P49789); assay: Inhibition of recombinant human FHIT incubated for 1hr in presence of tokyogreen-labeled CMP probe by fluorescence based analysis
T1 sequence (P49789 whole entry): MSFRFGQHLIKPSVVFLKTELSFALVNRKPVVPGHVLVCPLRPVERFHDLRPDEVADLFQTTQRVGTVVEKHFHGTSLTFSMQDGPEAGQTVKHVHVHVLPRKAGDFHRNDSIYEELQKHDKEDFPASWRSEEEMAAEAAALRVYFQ

[4] = Growth inhibition of human NCI-H460-luc cells incubated for 72 hrs by CCK-8 assay; assay type: functional
[5] = target: T1, Bis(5'-adenosyl)-triphosphatase; assay: Inhibition of recombinant human FHIT assessed as reduction in AP3Aase activity measured after 45 mins by HPLC analysis
[6] = target: T1, Bis(5'-adenosyl)-triphosphatase; assay: Inhibition of human FHIT expressed in Escherichia coli BL21(DE3)-RIL cells using AP3A as substrate pretreated for 10 mins followed by substrate addition and measured after 1 hr by HPLC analysis

Row | IC50 [3] [µM] | SMILES | GI50 [2] [µM] | GI50 [4] [µM] | other results
1 |  | Cc1cc(=O)oc2cc(O)c(F)cc12 |  |  | pKa [1]: 6.3
2 |  | O=c1cc(C(F)(F)F)c2cc(F)c(O)cc2o1 |  |  | pKa [1]: 5.6
3 | 5 | Cc1c(OCc2nn[nH]n2)ccc2c3c(c(=O)oc12)CCCC3 | > 100 | > 100 | 
4 | 4.66 | Cc1c(OCc2nn[nH]n2)ccc2c3c(c(=O)oc12)CCC(C)C3 (configuration not stated) |  |  | 
5 | 2.8 | COc1c(OCC(=O)NO)ccc2c3c(c(=O)oc12)CCCC3 | 5.3 | 29 | 
6 | 18 | O=C(COc1cc2oc(=O)c3c(c2cc1Br)CCCC3)NO |  |  | 
7 | 3.98 | NNC(=O)c1nn(-c2ccccc2)c(=O)cc1O |  |  | 
8 | 0.77 | CN1C(=O)N/C(=C/c2cccn2-c2ccc(C(=O)O)cc2)C1=O |  |  | 
9 | 3.43 | O=C(Cn1cc([N+](=O)[O-])ccc1=O)NC(=O)NCc1ccco1 |  |  | 
10 | 5.3 | CCc1c(OCC(=O)NO)ccc2c3c(c(=O)oc12)CCCC3 |  |  | 
11 | 1.58 | O=C(O)c1ccc2[nH]c(-c3ccnc(-c4cccnc4)c3)nc2c1 |  |  | 
12 |  | Cc1ccccc1-c1c2ccc(=O)cc-2oc2cc(O)ccc12 |  |  | pKa [1]: 6.2
13 | 1.9 | Cc1c(OCC(=O)NO)ccc2c3c(c(=O)oc12)CCCC3 | 2.6 | 15 | IC50 [5]: 0.14 µM
14 | 0.12 | O=C(COc1ccc2c3c(c(=O)oc2c1Br)CCCC3)NO | 0.87 | 5.9 | IC50 [5]: 0.06 µM
15 | 11 | Cc1c(OCC(=O)O)ccc2c3c(c(=O)oc12)CCCC3 | > 100 | > 100 | 
16 | 3.73 | O=C(O)c1ccc(/C=N/NC(=O)c2nc(-c3ccccc3)n(-c3ccccc3)n2)cc1 |  |  | 
17 | 8.8 | CC1(C)CC(=O)C2=C(C1)NC1=C(C(=O)c3ccccc31)C2c1ccc(Br)cc1 (configuration not stated) | > 10 | > 10 | IC50 [6]: 0.049 µM; IC50 [5]: 23 µM
18 | 8.1 | CC(=O)c1c(OCC(=O)NO)ccc2c3c(c(=O)oc12)CCCC3 |  |  | 
19 | 41 | Cc1cc(=O)oc2c(C)c(OCC(=O)NO)ccc12 | 9.5 | 66 | 
20 | 50 | O=C(COc1cc2oc(=O)c3c(c2cc1Cl)CCCC3)NO |  |  | 
21 | 4 | NNC(=O)COc1ccc2c3c(c(=O)oc2c1Br)CCCC3 | > 100 | > 100 | 
22 | 5.5 | O=C(COc1ccc2c3c(c(=O)oc2c1)CCCC3)NO | 0.99 | 13 | 
23 | 1.01 | CCOC(=O)c1c(C)sc(N)c1C(=O)OCC |  |  | 
24 | 4.24 | COCC(=O)N1CC[C@@H]2[C@H]1C(=O)NC[C@H](CCC(=O)OC)N2C |  |  | 
25 | 50 | Cc1ccc(C(=O)Nc2ccc(S(=O)(=O)O)c3cc(S(=O)(=O)O)cc(S(=O)(=O)O)c23)cc1NC(=O)c1cccc(NC(=O)Nc2cccc(C(=O)Nc3cc(C(=O)Nc4ccc(S(=O)(=O)O)c5cc(S(=O)(=O)O)cc(S(=O)(=O)O)c45)ccc3C)c2)c1 [SURAMIN] |  |  | 
